Experimental data from US20230348462A1, “IMIDAZO[4,5-C]QUINOLINE COMPOUNDS AND THEIR USE AS ATM KINASE INHIBITORS” (Deutsches Krebsforschungszentrum, priority 2020, published 2023).

How the values were obtained:
human ATM = human ATM (Homo sapiens (Human), UniProt Q13315); assay: Enzymatic ATM assay (RBC FRET enzyme assay); format: biochemical; details: substrate p53, 5-point dilution starting at 10 μM
Description: The inhibitory activity on the isolated ATM kinase was determined by a commercial supplier (Reaction Biology Corp., PA, US) using an activity based FRET assay. Compounds were therefore first pre-incubated with human ATM before substrate (p53) and ATP were added to initiate the phosphorylation reaction. After a given time, the kinase reaction was stopped and the amount of phosphorylated substrate was quantified using standard FRET detection methods. […] Detailed assay conditions and parameters can be requested from the commercial supplier.

[1] = tested on: Panc-1 human pancreatic ductal carcinoma cells; assay: Panc1 cell assay (XTT cell viability with Etoposide); format: cell-based; details: 4 h pre-treatment, then 300 nM Etoposide, 46 h
Description: (§1) A selection of compounds was screened in a cellular assay system in two different cancer cell lines. Therefore, the cells were challenged with a generally non-cytotoxic concentration of Etoposid to induce DNA double strand breaks and the activation of the ATM pathway. The cells were further treated with different concentrations of the final compounds and viability of the cells was quantified using a standard XTT cell viability protocol. The principle of this assay lies in the fact that only alive and thus metabolically active cells are able to catalyze the reduction of XTT ((2,3-bis-(2-methoxy-4-nitro-5-sulfophenyl)-2H-tetrazolium-5-carboxanilide) by NADH from mitochondria, into formazan. The formazan product can be then detected using an absorbance-based microplate reader. The absorbance intensity measured in each well correlates to cell viability.
(§2) In brief, kras^G12D; mycOE; p53^−/− murine pancreatic cancer cells (KMP53) and Panc-1 human pancreatic ductal carcinoma cells were seeded in 96-well plates and left to attach overnight. The following day, cells were treated with serial dilutions of compound or DMSO in triplicates. The cells were first pre-treated for 4 hours with inhibitor and then 300 nM of Etoposide was added to each well. Cells were then grown under normal conditions (37° C., 95% air, 5% CO2) for 46 h. Following the incubation period, XTT solution was added to the cells containing 1 mg/ml XTT and 25 μM phenazine methosulfate (PMS) diluted in full culture medium. Cells were incubated in normal conditions for two more hours. For the determination of cell viability, absorbance at 450 nm was measured for each well. Absorbance values were then normalized to DMSO control and expressed as percentages of viability. Using software GraphPad Prism, the values were fitted in a nonlinear response curve and the IC50 values were calculated.

[2] = tested on: kras^G12D; mycOE; p53^−/− murine pancreatic cancer cells (KMP53); assay: KMP53 cell assay (XTT cell viability with Etoposide); format: cell-based; details: Mus musculus, 4 h pre-treatment, then 300 nM Etoposide, 46 h
Description: as §1, §2

Chain of human ATM (Q13315 whole entry): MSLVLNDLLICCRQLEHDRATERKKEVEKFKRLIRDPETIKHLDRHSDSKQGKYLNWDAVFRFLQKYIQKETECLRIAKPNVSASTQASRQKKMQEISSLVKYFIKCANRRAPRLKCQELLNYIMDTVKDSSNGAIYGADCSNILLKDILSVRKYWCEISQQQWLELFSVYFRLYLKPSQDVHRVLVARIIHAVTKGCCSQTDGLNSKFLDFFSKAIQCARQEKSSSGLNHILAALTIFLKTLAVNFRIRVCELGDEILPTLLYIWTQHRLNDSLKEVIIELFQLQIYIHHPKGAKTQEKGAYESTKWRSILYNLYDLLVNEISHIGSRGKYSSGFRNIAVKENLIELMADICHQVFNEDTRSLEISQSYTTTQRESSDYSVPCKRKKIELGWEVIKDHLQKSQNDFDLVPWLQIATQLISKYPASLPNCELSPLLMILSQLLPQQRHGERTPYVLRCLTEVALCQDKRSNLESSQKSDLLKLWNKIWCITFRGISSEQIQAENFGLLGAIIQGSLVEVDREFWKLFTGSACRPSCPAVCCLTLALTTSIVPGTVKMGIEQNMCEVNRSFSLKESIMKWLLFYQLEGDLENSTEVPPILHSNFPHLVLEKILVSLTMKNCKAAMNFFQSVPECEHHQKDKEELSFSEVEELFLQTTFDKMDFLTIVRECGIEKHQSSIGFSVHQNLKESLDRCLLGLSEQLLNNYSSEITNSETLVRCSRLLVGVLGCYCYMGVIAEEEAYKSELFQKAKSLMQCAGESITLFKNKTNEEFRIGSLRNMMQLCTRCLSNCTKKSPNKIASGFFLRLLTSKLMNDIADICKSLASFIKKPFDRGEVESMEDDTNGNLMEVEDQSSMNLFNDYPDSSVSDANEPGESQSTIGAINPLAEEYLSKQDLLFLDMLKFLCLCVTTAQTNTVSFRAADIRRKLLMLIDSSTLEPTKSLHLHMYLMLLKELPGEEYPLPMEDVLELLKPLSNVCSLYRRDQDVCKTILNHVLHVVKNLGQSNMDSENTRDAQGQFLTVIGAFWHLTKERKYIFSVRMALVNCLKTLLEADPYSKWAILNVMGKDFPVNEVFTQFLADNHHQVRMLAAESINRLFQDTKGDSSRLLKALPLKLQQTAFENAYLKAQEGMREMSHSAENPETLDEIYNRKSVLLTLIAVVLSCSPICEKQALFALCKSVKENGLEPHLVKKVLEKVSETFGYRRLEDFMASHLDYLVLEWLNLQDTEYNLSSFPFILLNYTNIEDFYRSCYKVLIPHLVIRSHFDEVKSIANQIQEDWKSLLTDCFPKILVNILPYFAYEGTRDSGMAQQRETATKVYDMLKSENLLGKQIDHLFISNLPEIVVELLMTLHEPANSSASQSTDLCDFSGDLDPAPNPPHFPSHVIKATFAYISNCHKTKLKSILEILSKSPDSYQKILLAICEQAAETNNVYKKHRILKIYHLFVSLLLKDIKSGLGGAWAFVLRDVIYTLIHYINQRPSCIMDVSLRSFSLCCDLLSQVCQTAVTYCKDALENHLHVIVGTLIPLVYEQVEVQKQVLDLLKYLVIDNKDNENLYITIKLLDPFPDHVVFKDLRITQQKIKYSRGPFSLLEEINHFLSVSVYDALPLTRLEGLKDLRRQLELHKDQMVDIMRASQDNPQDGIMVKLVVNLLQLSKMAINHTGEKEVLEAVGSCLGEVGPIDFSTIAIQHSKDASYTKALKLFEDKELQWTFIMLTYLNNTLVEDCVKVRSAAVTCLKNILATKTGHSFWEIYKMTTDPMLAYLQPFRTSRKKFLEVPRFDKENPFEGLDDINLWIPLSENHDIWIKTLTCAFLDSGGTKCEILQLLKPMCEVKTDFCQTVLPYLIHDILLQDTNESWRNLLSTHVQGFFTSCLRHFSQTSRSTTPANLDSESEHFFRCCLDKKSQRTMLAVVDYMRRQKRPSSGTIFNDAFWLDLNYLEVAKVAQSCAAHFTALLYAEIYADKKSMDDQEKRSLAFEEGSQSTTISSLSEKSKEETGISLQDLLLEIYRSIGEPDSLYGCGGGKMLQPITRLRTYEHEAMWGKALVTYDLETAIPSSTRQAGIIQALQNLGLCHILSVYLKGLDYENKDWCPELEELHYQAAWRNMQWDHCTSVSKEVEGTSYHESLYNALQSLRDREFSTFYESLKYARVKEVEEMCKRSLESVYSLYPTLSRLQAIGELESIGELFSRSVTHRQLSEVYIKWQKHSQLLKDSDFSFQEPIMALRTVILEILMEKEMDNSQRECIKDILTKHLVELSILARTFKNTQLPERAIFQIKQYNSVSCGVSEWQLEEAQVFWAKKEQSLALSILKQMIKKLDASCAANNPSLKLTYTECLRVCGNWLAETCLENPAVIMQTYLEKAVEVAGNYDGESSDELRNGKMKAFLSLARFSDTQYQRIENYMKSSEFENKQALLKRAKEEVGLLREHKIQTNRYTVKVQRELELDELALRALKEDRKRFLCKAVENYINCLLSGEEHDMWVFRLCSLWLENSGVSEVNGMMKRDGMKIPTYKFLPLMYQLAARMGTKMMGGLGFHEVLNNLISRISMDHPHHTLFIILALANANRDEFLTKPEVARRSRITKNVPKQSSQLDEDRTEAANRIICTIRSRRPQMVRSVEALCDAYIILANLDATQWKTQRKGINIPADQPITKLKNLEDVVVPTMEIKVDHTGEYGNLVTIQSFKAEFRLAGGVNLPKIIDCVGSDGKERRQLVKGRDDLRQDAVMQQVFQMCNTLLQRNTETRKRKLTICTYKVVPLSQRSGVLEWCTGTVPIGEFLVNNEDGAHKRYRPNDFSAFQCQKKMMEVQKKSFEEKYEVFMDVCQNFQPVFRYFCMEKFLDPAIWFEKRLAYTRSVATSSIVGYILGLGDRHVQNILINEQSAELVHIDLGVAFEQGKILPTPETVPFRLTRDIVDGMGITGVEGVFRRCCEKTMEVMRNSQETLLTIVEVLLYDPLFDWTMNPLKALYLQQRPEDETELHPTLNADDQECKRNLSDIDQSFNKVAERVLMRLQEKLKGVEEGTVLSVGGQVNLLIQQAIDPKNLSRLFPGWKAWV

Compound | IC50 (human ATM) | IC50 [1] | IC50 [2]
COCCn1c(=O)n(C)c2cnc3ccc(-c4ccc(NC(=O)NC5CCCN(C)C5)cc4)cc3c21 (stereo not shown) [Ex. 17, 1-(4-(1-(2-Methoxyethyl)-3-methyl-2-oxo-2,3-dihydro-1H-imidazo[4,5-c]quinolin-8-yl)phenyl)-3-(1-methylpiperidin-3-yl)urea] | < 1 nM | 4 nM | 
COCCn1c(=O)n(C)c2cnc3ccc(-c4ccc(NC(=O)NC5CCN(C)C5)cc4)cc3c21 (stereo not shown) [Ex. 19, 1-(4-(1-(2-Methoxyethyl)-3-methyl-2-oxo-2,3-dihydro-1H-imidazo[4,5-c]quinolin-8-yl)phenyl)-3-(1-methylpyrrolidin-3-yl)urea] | < 1 nM | 9 nM | 9930 nM
COCCn1c(=O)n(C)c2cnc3ccc(-c4ccc(NC(=O)N5CC(N(C)C)C5)cc4)cc3c21 [Ex. 26, 3-(Dimethylamino)-N-(4-(1-(2-methoxyethyl)-3-methyl-2-oxo-2,3-dihydro-1H-imidazo[4,5-c]58uinoline-8-yl)phenyl)azetidine-1-carboxamide] | 4 nM |  | 
CN(C)CCCOc1ccc(-c2ccc3ncc4nc(-c5ccccc5)n(C5CCOCC5)c4c3c2)cn1 [Ex. 4, N,N-Dimethyl-3-((5-(2-phenyl-1-(tetrahydro-2H-pyran-4-yl)-1H-imidazo[4,5-c]quinolin-8-yl)pyridin-2-yl)oxy)propan-1-amine] | 3.7 nM |  | 2100 nM
COCCn1c(=O)n(C)c2cnc3ccc(-c4ccc(NC(=O)NCCN(C)C)cc4)cc3c21 [Ex. 11, 1-(2-(Dimethylamino)ethyl)-3-(4-(1-(2-methoxyethyl)-3-methyl-2-oxo-2,3-dihydro-1H-imidazo[4,5-c]quinolin-8-yl)phenyl)urea] | < 1 nM |  | 4000 nM
COCCn1c(=O)n(C)c2cnc3ccc(-c4ccc(NC(=O)NC5CCN(C)CC5)cc4)cc3c21 [Ex. 18, 1-(4-(1-(2-Methoxyethyl)-3-methyl-2-oxo-2,3-dihydro-1H-imidazo[4,5-c]quinolin-8-yl)phenyl)-3-(1-methylpiperidin-4-yl)urea] | 4 nM |  | 
COCCn1c(=O)n(C)c2cnc3ccc(-c4ccc(NC(=O)NCCN(C)C)c(F)c4F)cc3c21 [Ex. 46, 1-(2,3-Difluoro-4-(1-(2-methoxyethyl)-3-methyl-2-oxo-2,3-dihydro-1H-imidazo[4,5-c]quinolin-8-yl)phenyl)-3-(2-(dimethylamino)ethyl)urea] | 3 nM |  | 8940 nM
COCCn1c(=O)n(C)c2cnc3ccc(-c4ccc(NC(=O)N5CCC(N(C)C)C5)cc4)cc3c21 (stereo not shown) [Ex. 25, 3-(Dimethylamino)-N-(4-(1-(2-methoxyethyl)-3-methyl-2-oxo-2,3-dihydro-1H-imidazo[4,5-c]quinolin-8-yl)phenyl)pyrrolidine-1-carboxamide] | 7 nM |  | 
COCCn1c(=O)n(C)c2cnc3ccc(-c4ccc(NC(=O)NCCN(C)C)c(F)c4)cc3c21 [Ex. 28, 1-(2-(Dimethylamino)ethyl)-3-(2-fluoro-4-(1-(2-methoxyethyl)-3-methyl-2-oxo-2,3-dihydro-1H-imidazo[4,5-c]quinolin-8-yl)phenyl)urea] | < 1 nM | 1 nM | 2000 nM
COCCn1cnc2cnc3ccc(-c4ccc(OCCCN(C)C)nc4)cc3c21 [Ex. 5, 3-((5-(1-(2-Methoxyethyl)-1H-imidazo[4,5-c]quinolin-8-yl)pyridin-2-yl)oxy)-N,N-dimethylpropan-1-amine] | 3.3 nM |  | 3400 nM
Cc1nc2cnc3ccc(-c4ccc(OCCCN(C)C)nc4)cc3c2n1C1CCOCC1 [Ex. 2, N,N-Dimethyl-3-((5-(2-methyl-1-(tetrahydro-2H-pyran-4-yl)-1H-imidazo[4,5-c]quinolin-8-yl)pyridin-2-yl)oxy)propan-1-amine] | 2.9 nM |  | 8100 nM
COCCn1c(=O)n(C)c2cnc3ccc(-c4ccc(NC(=O)NCCN5CCC5)cc4)cc3c21 [Ex. 49, 1-(2-(Azetidin-1-yl)ethyl)-3-(4-(1-(2-methoxyethyl)-3-methyl-2-oxo-2,3-dihydro-1H-imidazo[4,5-c]quinolin-8-yl)phenyl)urea] | < 1 nM |  | 
COCCn1c(-c2ccco2)nc2cnc3ccc(-c4ccc(OCCCN(C)C)nc4)cc3c21 [Ex. 6, 3-((5-(2-(Furan-2-yl)-1-(2-methoxyethyl)-1H-imidazo[4,5-c]quinolin-8-yl)pyridin-2-yl)oxy)-N,N-dimethylpropan-1-amine dimesylate] | < 1 nM |  | 3420 nM
CN(C)CCNC(=O)Nc1ccc(-c2ccc3ncc4c(c3c2)n(C2CCOCC2)c(=O)n4C)cc1 [Ex. 10, 1-(2-(Dimethylamino)ethyl)-3-(4-(3-methyl-2-oxo-1-(tetrahydro-2H-pyran-4-yl)-2,3-dihydro-1H-imidazo[4,5-c]quinolin-8-yl)phenyl)urea] | < 1 nM |  | 1450 nM
COCCn1c(=O)n(C)c2cnc3ccc(-c4ccc(NC(=O)NC(C)CN(C)C)cc4)cc3c21 (racemic) [Ex. 52, (RS)-1-(1-(Dimethylamino)propan-2-yl)-3-(4-(1-(2-methoxyethyl)-3-methyl-2-oxo-2,3-dihydro-1H-imidazo[4,5-c]quinolin-8-yl)phenyl)urea] | < 1 nM |  | 5470 nM
COCCn1c(=O)n(C)c2cnc3ccc(-c4ccc(NC(=O)N5CCC(NC(=O)OC(C)(C)C)CC5)cc4)cc3c21 [Ex. 13, tert-Butyl (1-((4-(1-(2-methoxyethyl)-3-methyl-2-oxo-2,3-dihydro-1H-imidazo[4,5-c]quinolin-8-yl)phenyl)carbamoyl)piperidin-4-yl)carbamate] | 2.3 nM |  | 
COCCn1c(=O)n(C)c2cnc3ccc(-c4ccc(NC(=O)N5CCN(C)CC5)cc4)cc3c21 [Ex. 20, N-(4-(1-(2-methoxyethyl)-3-methyl-2-oxo-2,3-dihydro-1H-imidazo[4,5-c]quinolin-8-yl)phenyl)-4-methylpiperazine-1-carboxamide] |  |  | 3800 nM
COCCn1c(=O)n(C)c2cnc3ccc(-c4ccc(NC(=O)NC5CN(C)C5)cc4)cc3c21 [Ex. 21, 1-(4-(1-(2-Methoxyethyl)-3-methyl-2-oxo-2,3-dihydro-1H-imidazo[4,5-c]quinolin-8-yl)phenyl)-3-(1-methylazetidin-3-yl)urea] | < 1 nM |  | 
COCCn1c(=O)n(C)c2cnc3ccc(-c4ccc(OCCCN(C)C)nc4)cc3c21 [Ex. 9, 8-(6-(3-(Dimethylamino)propoxy)43uinolin-3-yl)-1-(2-methoxyethyl)-3-methyl-1,3-dihydro-2H-imidazo[4,5-c]43uinoline-2-one] | < 1 nM |  | 1580 nM
COCCn1c(=O)n(C)c2cnc3ccc(-c4ccc(NC(=O)NC5CCN(C(=O)OC(C)(C)C)CC5)cc4)cc3c21 [Ex. 15, tert-Butyl 4-(3-(4-(1-(2-methoxyethyl)-3-methyl-2-oxo-2,3-dihydro-1H-imidazo[4,5-c]quinolin-8-yl)phenyl)ureido)piperidine-1-carboxylate] | < 1 nM |  | 
CN(C)CCCOc1ccc(-c2ccc3ncc4ncn(C5CCOCC5)c4c3c2)cn1 [Ex. 1, N,N-Dimethyl-3-((5-(1-(tetrahydro-2H-pyran-4-yl)-1H-imidazo[4,5-c]quinolin-8-yl)pyridin-2-yl)oxy)propan-1-amine] | 2.3 nM |  | 6900 nM
COCCn1c(=O)n(C)c2cnc3ccc(-c4ccc(NC(=O)NCCN(C)C)c(C)c4F)cc3c21 [Ex. 48, 1-(2-(Dimethylamino)ethyl)-3-(3-fluoro-4-(1-(2-methoxyethyl)-3-methyl-2-oxo-2,3-dihydro-1H-imidazo[4,5-c]quinolin-8-yl)-2-methylphenyl)urea] |  |  | 7950 nM
COCCn1c(=O)n(C)c2cnc3ccc(-c4ccc(NC(=O)NCCN5CC(F)C5)cc4)cc3c21 [Ex. 50, 1-(2-(3-Fluoroazetidin-1-yl)ethyl)-3-(4-(1-(2-methoxyethyl)-3-methyl-2-oxo-2,3-dihydro-1H-imidazo[4,5-c]quinolin-8-yl)phenyl)urea] | < 1 nM |  | 8040 nM
CN(C)CCCOc1ccc(-c2ccc3ncc4nc(-c5ccco5)n(C5CCOCC5)c4c3c2)cn1 [Ex. 3, 3-((5-(2-(Furan-2-yl)-1-(tetrahydro-2H-pyran-4-yl)-1H-imidazo[4,5-c]quinolin-8-yl)pyridin-2-yl)oxy)-N,N-dimethylpropan-1-amine] | < 1 nM |  | 7500 nM
CN1CCN(C(=O)Nc2ccc(-c3ccc4ncc5c(c4c3)n(C3CCOCC3)c(=O)n5C)cn2)CC1 [Ex. 8, 4-Methyl-N-(5-(3-methyl-2-oxo-1-(tetrahydro-2H-pyran-4-yl)-2,3-dihydro-1H-imidazo[4,5-c]quinolin-8-yl)pyridin-2-yl)piperazine-1-carboxamide] | 2 nM |  | 410 nM
